In US20200085776A1, “Methods of Reducing C-Reactive Protein and/or Treating Cardiovascular Disease” (CARDAX, INC., priority 2018, published 2020):

Key:
HDL = assay: Fasting lipid panel: HDL, CHASE clinical study; assay type: in vivo, human; settings: for HDL V2 to V6 % Change Max / HDL V2 to V6 % Change Mean (SD) / HDL V2 to V6 % Change Median / HDL V2 to V6 % Change Min / HDL V2 to V6 Change Max / HDL V2 to V6 Change Mean (SD) / HDL V2 to V6 Change Median / HDL V2 to V6 Change Min: baseline to Week 12
Source text: (§1) Blood samples shall be obtained under fasted conditions for a lipid panel at V2, V4, V6, V7, and V8. This panel shall include total cholesterol, LDL-C, VLDL-C, HDL-C, and triglycerides. A minimum eight-hour fast (water allowed) is required for the lipid panel.
(§2) Fasting lipid profiles and fasting chemistry panels may be obtained within the visit time window on a day separate from the scheduled office visit, within two days before or after the other study procedures. A minimum of eight hours fasted (water allowed ad lib) is required.
(§3) Table 7M provides the changes in lipid levels (mg/dL) (V2 to V6) for subjects.

LDL = assay: Fasting lipid panel: LDL, CHASE clinical study; assay type: in vivo, human; settings: for LDL V2 to V6 % Change Max / LDL V2 to V6 % Change Mean (SD) / LDL V2 to V6 % Change Median / LDL V2 to V6 % Change Min / LDL V2 to V6 Change Max / LDL V2 to V6 Change Mean (SD) / LDL V2 to V6 Change Median / LDL V2 to V6 Change Min: baseline to Week 12
Source text: as §1, §2, §3

[1] = Group X 12 mg BID, V2 baseline pre-dose, all subjects
[2] = Group X 12 mg BID, V2 baseline pre-dose, subjects with hyperlipidemia
[3] = Group X 12 mg BID, V6 Week 12, all subjects
[4] = Group X 12 mg BID, V6 Week 12, subjects with hyperlipidemia
[5] = Group X 12 mg BID, all subjects
[6] = Group X 12 mg BID, subjects with hyperlipidemia
[7] = Group Z 48 mg BID, V2 baseline pre-dose, all subjects
[8] = Group Z 48 mg BID, V2 baseline pre-dose, subjects with hyperlipidemia
[9] = Group Z 48 mg BID, V6 Week 12, all subjects
[10] = Group Z 48 mg BID, V6 Week 12, subjects with hyperlipidemia
[11] = Group Z 48 mg BID, all subjects
[12] = Group Z 48 mg BID, subjects with hyperlipidemia

SMILES: CC1=C(/C=C/C(C)=C/C=C/C(C)=C/C=C/C=C(C)/C=C/C=C(C)/C=C/C2=C(C)C(=O)C(O)CC2(C)C)C(C)(C)CC(O)C1=O (centres unmarked) [Astaxanthin, astaxanthin]
- HDL Max (HDL; [1]): 73.00 mg/dL
- HDL Mean (SD) (HDL; [1]): 46.00 (17.37) mg/dL
- HDL Median (HDL; [1]): 42.00 mg/dL
- HDL Min (HDL; [1]): 24.00 mg/dL
- HDL Max (HDL; [2]): 67.00 mg/dL
- HDL Mean (SD) (HDL; [2]): 45.38 (17.08) mg/dL
- HDL Median (HDL; [2]): 42.50 mg/dL
- HDL Min (HDL; [2]): 24.00 mg/dL
- HDL Max (HDL; [3]): 68.00 mg/dL
- HDL Mean (SD) (HDL; [3]): 45.27 (13.68) mg/dL
- HDL Median (HDL; [3]): 42.00 mg/dL
- HDL Min (HDL; [3]): 29.00 mg/dL
- HDL Max (HDL; [4]): 65.00 mg/dL
- HDL Mean (SD) (HDL; [4]): 44.13 (13.24) mg/dL
- HDL Median (HDL; [4]): 41.00 mg/dL
- HDL Min (HDL; [4]): 29.00 mg/dL
- HDL V2 to V6 % Change Max (HDL; [5]): 24.14%
- HDL V2 to V6 % Change Mean (SD) (HDL; [5]): 1.78 (14.18) %
- HDL V2 to V6 % Change Median (HDL; [5]): −2.99%
- HDL V2 to V6 % Change Min (HDL; [5]): −16.3%
- HDL V2 to V6 Change Max (HDL; [5]): 7.00 mg/dL
- HDL V2 to V6 Change Mean (SD) (HDL; [5]): −0.73 (5.75) mg/dL
- HDL V2 to V6 Change Median (HDL; [5]): -1.00 mg/dL
- HDL V2 to V6 Change Min (HDL; [5]): -9.00 mg/dL
- HDL V2 to V6 % Change Max (HDL; [6]): 24.14%
- HDL V2 to V6 % Change Mean (SD) (HDL; [6]): 0.85 (15.61) %
- HDL V2 to V6 % Change Median (HDL; [6]): −3.06%
- HDL V2 to V6 % Change Min (HDL; [6]): −16.3%
- HDL V2 to V6 Change Max (HDL; [6]): 7.00 mg/dL
- HDL V2 to V6 Change Mean (SD) (HDL; [6]): −1.25 (6.11) mg/dL
- HDL V2 to V6 Change Median (HDL; [6]): -1.50 mg/dL
- HDL V2 to V6 Change Min (HDL; [6]): -9.00 mg/dL
- HDL Max (HDL; [7]): 77.00 mg/dL
- HDL Mean (SD) (HDL; [7]): 47.79 (14.77) mg/dL
- HDL Median (HDL; [7]): 40.00 mg/dL
- HDL Min (HDL; [7]): 29.00 mg/dL
- HDL Max (HDL; [8]): 77.00 mg/dL
- HDL Mean (SD) (HDL; [8]): 44.93 (13.59) mg/dL
- HDL Median (HDL; [8]): 40.00 mg/dL
- HDL Min (HDL; [8]): 29.00 mg/dL
- HDL Max (HDL; [9]): 75.00 mg/dL
- HDL Mean (SD) (HDL; [9]): 47.11 (14.59) mg/dL
- HDL Median (HDL; [9]): 41.00 mg/dL
- HDL Min (HDL; [9]): 30.00 mg/dL
- HDL Max (HDL; [10]): 72.00 mg/dL
- HDL Mean (SD) (HDL; [10]): 44.71 (13.00) mg/dL
- HDL Median (HDL; [10]): 39.00 mg/dL
- HDL Min (HDL; [10]): 32.00 mg/dL
- HDL V2 to V6 % Change Max (HDL; [11]): 24.53%
- HDL V2 to V6 % Change Mean (SD) (HDL; [11]): −3.43 (10.55) %
- HDL V2 to V6 % Change Median (HDL; [11]): −5.80%
- HDL V2 to V6 % Change Min (HDL; [11]): −22.7%
- HDL V2 to V6 Change Max (HDL; [11]): 13.00 mg/dL
- HDL V2 to V6 Change Mean (SD) (HDL; [11]): −1.72 (5.19) mg/dL
- HDL V2 to V6 Change Median (HDL; [11]): -3.00 mg/dL
- HDL V2 to V6 Change Min (HDL; [11]): -10.0 mg/dL
- HDL V2 to V6 % Change Max (HDL; [12]): 24.53%
- HDL V2 to V6 % Change Mean (SD) (HDL; [12]): −2.50 (11.26) %
- HDL V2 to V6 % Change Median (HDL; [12]): −4.04%
- HDL V2 to V6 % Change Min (HDL; [12]): −22.7%
- HDL V2 to V6 Change Max (HDL; [12]): 13.00 mg/dL
- HDL V2 to V6 Change Mean (SD) (HDL; [12]): −1.36 (5.64) mg/dL
- HDL V2 to V6 Change Median (HDL; [12]): -2.00 mg/dL
- HDL V2 to V6 Change Min (HDL; [12]): -10.0 mg/dL
- LDL Max (LDL; [1]): 220.0 mg/dL
- LDL Mean (SD) (LDL; [1]): 111.9 (61.26) mg/dL
- LDL Median (LDL; [1]): 112.0 mg/dL
- LDL Min (LDL; [1]): 37.00 mg/dL
- LDL Max (LDL; [2]): 220.0 mg/dL
- LDL Mean (SD) (LDL; [2]): 99.00 (66.54) mg/dL
- LDL Median (LDL; [2]): 73.00 mg/dL
- LDL Min (LDL; [2]): 37.00 mg/dL
- LDL Max (LDL; [3]): 236.0 mg/dL
- LDL Mean (SD) (LDL; [3]): 109.6 (67.65) mg/dL
- LDL Median (LDL; [3]): 102.0 mg/dL
- LDL Min (LDL; [3]): 40.00 mg/dL
- LDL Max (LDL; [4]): 236.0 mg/dL
- LDL Mean (SD) (LDL; [4]): 94.57 (70.92) mg/dL
- LDL Median (LDL; [4]): 60.00 mg/dL
- LDL Min (LDL; [4]): 40.00 mg/dL
- LDL V2 to V6 % Change Max (LDL; [5]): 21.62%
- LDL V2 to V6 % Change Mean (SD) (LDL; [5]): −3.46 (13.64) %
- LDL V2 to V6 % Change Median (LDL; [5]): −7.02%
- LDL V2 to V6 % Change Min (LDL; [5]): −21.6%
- LDL V2 to V6 Change Max (LDL; [5]): 17.00 mg/dL
- LDL V2 to V6 Change Mean (SD) (LDL; [5]): −2.30 (12.98) mg/dL
- LDL V2 to V6 Change Median (LDL; [5]): -6.50 mg/dL
- LDL V2 to V6 Change Min (LDL; [5]): -18.0 mg/dL
- LDL V2 to V6 % Change Max (LDL; [6]): 21.62%
- LDL V2 to V6 % Change Mean (SD) (LDL; [6]): −5.19 (15.13) %
- LDL V2 to V6 % Change Median (LDL; [6]): −10.2%
- LDL V2 to V6 % Change Min (LDL; [6]): −21.6%
- LDL V2 to V6 Change Max (LDL; [6]): 16.00 mg/dL
- LDL V2 to V6 Change Mean (SD) (LDL; [6]): −4.43 (12.39) mg/dL
- LDL V2 to V6 Change Median (LDL; [6]): -11.0 mg/dL
- LDL V2 to V6 Change Min (LDL; [6]): -18.0 mg/dL
- LDL Max (LDL; [7]): 206.0 mg/dL
- LDL Mean (SD) (LDL; [7]): 99.13 (46.59) mg/dL
- LDL Median (LDL; [7]): 84.00 mg/dL
- LDL Min (LDL; [7]): 34.00 mg/dL
- LDL Max (LDL; [8]): 166.0 mg/dL
- LDL Mean (SD) (LDL; [8]): 89.33 (40.83) mg/dL
- LDL Median (LDL; [8]): 75.50 mg/dL
- LDL Min (LDL; [8]): 34.00 mg/dL
- LDL Max (LDL; [9]): 176.0 mg/dL
- LDL Mean (SD) (LDL; [9]): 90.31 (37.82) mg/dL
- LDL Median (LDL; [9]): 81.00 mg/dL
- LDL Min (LDL; [9]): 49.00 mg/dL
- LDL Max (LDL; [10]): 176.0 mg/dL
- LDL Mean (SD) (LDL; [10]): 82.42 (37.25) mg/dL
- LDL Median (LDL; [10]): 70.00 mg/dL
- LDL Min (LDL; [10]): 49.00 mg/dL
- LDL V2 to V6 % Change Max (LDL; [11]): 15.71%
- LDL V2 to V6 % Change Mean (SD) (LDL; [11]): −14.5 (17.99) %
- LDL V2 to V6 % Change Median (LDL; [11]): −12.0%
- LDL V2 to V6 % Change Min (LDL; [11]): −50.0%
- LDL V2 to V6 Change Max (LDL; [11]): 11.00 mg/dL
- LDL V2 to V6 Change Mean (SD) (LDL; [11]): −18.9 (24.97) mg/dL
- LDL V2 to V6 Change Median (LDL; [11]): -11.0 mg/dL
- LDL V2 to V6 Change Min (LDL; [11]): -83.0 mg/dL
- LDL V2 to V6 % Change Max (LDL; [12]): 15.00%
- LDL V2 to V6 % Change Mean (SD) (LDL; [12]): −17.4 (18.43) %
- LDL V2 to V6 % Change Median (LDL; [12]): −12.5%
- LDL V2 to V6 % Change Min (LDL; [12]): −50.0%
- LDL V2 to V6 Change Max (LDL; [12]): 9.00 mg/dL
- LDL V2 to V6 Change Mean (SD) (LDL; [12]): −20.5 (26.25) mg/dL
- LDL V2 to V6 Change Median (LDL; [12]): -11.0 mg/dL
- LDL V2 to V6 Change Min (LDL; [12]): -83.0 mg/dL
